LD50 and GHS category data for 48 molecules are collected here from the CATMoS acute toxicity set (Mansouri et al. 2021).

One series in a line: rat acute oral toxicity. As to conditions: in vivo. From the text: […]The data set underlying the modeling effort for this project was initially compiled by NICEATM and U.S. EPA’s CCTE. Briefly, LD50 data were collected from rat acute oral systemic toxicity tests, including limit tests, ranges/confidence intervals, and discrete LD50 values. The full data set included 21,200 LD50 entries for 15,688 substances. […] Data were reviewed to ensure that LD50 values with obvious errors in the extracted data such as unit conversion errors (e.g., comma and decimal separator misplacements) were either fixed or removed. After this review, 16,209 LD50 values remained. Many of the chemicals represented had multiple LD50 entries, requiring that a single representative value per Chemical Abstracts Service Registry Number (CASRN) identifier be defined to facilitate modeling efforts. Based on ATWG feedback and to define the representative LD50 as a protective value while accounting for the distribution across multiple LD50s, the median of the lowest quartile was computed using only discrete LD50 values (omitting limit test data and range and confidence interval data). A detailed summary of the data compilation is available online on the NICEATM webpage dedicated to the collaborative modeling project (NTP 2020).
[…][…] For categorical designations, limit test and range/confidence interval LD50 data were integrated wherever possible. As such, the number of chemicals with end point values/calls varies across the modeling end points (Table 3) based on whether chemicals had representative LD50 values and/or other data. If a chemical had both, the representative value was used to determine categorical calls rather than limit test data. Some data were useable only for certain end points and categories depending on the thresholds. For example, ranges that spanned multiple hazard categories were considered only for the binary (very toxic/nontoxic) end points and omitted from rendering a determination for hazard category assignment.
[…]The final data set comprising 11,992 chemicals was split into training and evaluation sets […], respectively. This process was performed semirandomly by ordering chemicals based on the five end points (categorical and continuous LD50 values) and partitioning every fourth record into the evaluation set accordingly. This approach was taken to ensure an equivalent distribution of the LD50 values and the different hazard categories between the training and the evaluation sets without supervised sampling of the chemicals based on structures (Figure 1A). The sources of the chemical structures were also kept equivalent between the two sets, with chemical structures obtained from DSSTox, being the highest quality, representing over 75% of each set (Figure 1B).

The nature of series [1]: GHS categories as the set defines them, by LD50: 1 up to 5, 2 up to 50, 3 up to 300, 4 up to 2000, 5 above 2000 mg/kg. The note with it: rat; in vivo; po.

As to `CC(C)(N)Cc1ccccc1`, the LD50 in the series “rat acute oral toxicity” came out at 151 mg/kg.

`Nc1ccccc1N`: the LD50 in “rat acute oral toxicity” worked out at 510 mg/kg.

Turning to `CNC(=O)ON=C(SC)C(=O)N(C)C`, the LD50 in “rat acute oral toxicity” is 2.5 mg/kg.

In turn, `CC(=O)C(Cl)C(=O)N(C)C` (stereo not drawn) registered an LD50 in “rat acute oral toxicity” of 275 mg/kg.

In the series “rat acute oral toxicity”, `C=CCOC(=O)C(=C)C` showed an LD50 of 70 mg/kg.

In turn, `O=C(O)C(F)(OC(F)(F)C(F)(F)C(F)(F)F)C(F)(F)F` (stereo not drawn) displayed an LD50 in “rat acute oral toxicity” of 1750 mg/kg.

The molecule `OCCOCCO` came in with an LD50 in “rat acute oral toxicity” of 12600 mg/kg.

As to `Sc1ccccc1`, the LD50 in “rat acute oral toxicity” turned out to be 46 mg/kg.

In the case of `Oc1ccccc1-c1ccccc1`, the LD50 in “rat acute oral toxicity” was found to be 718 mg/kg.

In the case of `CCOP(=O)(OCC)OCC`, the LD50 in the series “rat acute oral toxicity” was 1160 mg/kg.

In the series “rat acute oral toxicity”, `CSc1nnc(C(C)(C)C)c(=O)n1N` had an LD50 of 322 mg/kg.

In “rat acute oral toxicity”, `CC(C)c1cccc(C(C)C)c1N` registered an LD50 of 3200 mg/kg.

Molecule `Cc1ccc(O)c(C)c1` gave an LD50 in the series “rat acute oral toxicity” of 2300 mg/kg.

`CC(C)C(=O)c1ccccc1` registered an LD50 in “rat acute oral toxicity” of 1950 mg/kg.

As to `COC(C)(C)CCCC(C)C/C=C/C(C)=C/C(=O)OC(C)C` (stereo not drawn), in the series “rat acute oral toxicity”, the LD50 is 2320 mg/kg.

Molecule `ClC=C(Cl)Cl` came in with an LD50 in the series “rat acute oral toxicity” of 4920 mg/kg.

For `CC(C)N(C(=O)COc1nnc(C(F)(F)F)s1)c1ccc(F)cc1`, in the series “rat acute oral toxicity”, the LD50 amounted to 480 mg/kg.

`CCC(C)c1cc([N+](=O)[O-])cc([N+](=O)[O-])c1OC(=O)C=C(C)C` (stereo not drawn): the LD50 in the series “rat acute oral toxicity” was found to be 58 mg/kg.

Take `c1ccc(-c2ccccn2)nc1`: the LD50 in “rat acute oral toxicity” was found to be 100 mg/kg.

In the series “rat acute oral toxicity”, `CC(=O)OC1CC(C)OC(C)O1` (stereo not drawn) returned an LD50 of 1930 mg/kg.

Molecule `COCCCN` registered an LD50 in the series “rat acute oral toxicity” of 598 mg/kg.

In the case of `CCCNC(=O)NS(=O)(=O)c1ccc(Cl)cc1`, the LD50 in the series “rat acute oral toxicity” worked out at 2150 mg/kg.

In the case of `CC(C)CCCCCCO`, in “rat acute oral toxicity”, the LD50 is 2980 mg/kg.

`CCOP(c1ccccc1)c1ccccc1` gave an LD50 in “rat acute oral toxicity” of 316 mg/kg.

Regarding `CCNCCO`, the LD50 in the series “rat acute oral toxicity” stood at 1000 mg/kg.

As for `CCC1OC(=O)C(C)C(OC2CC(C)(OC)C(O)C(C)O2)C(C)C(OC2OC(C)CC(N(C)C)C2O)C(C)(O)CC(C)(F)C(=O)C(C)C(O)C1(C)O` (stereo not drawn), in series [1], the GHS category was determined as 5.

In series [1], `CCCCCCCCOC(=O)c1ccc(C(=O)OCCCCCCCC)c(C(=O)OCCCCCCCC)c1` displayed a GHS category of 5.

`CC(=O)SC[C@@H](C)C(=O)N1CCC[C@H]1C(=O)N[C@@H](Cc1ccccc1)C(=O)O`: the GHS category in series [1] amounted to 5.

Turning to `Cc1cccc(C)c1N=C(O)c1cccnc1O`, in series [1], the GHS category is listed as 5.

Molecule `CCCCCCCCCCCCCCCCCOS(=O)(=O)O` gave a GHS category in series [1] of 4.

As to `OCCN1CNC(=S)NC1`, the GHS category in series [1] came to 5.

In series [1], `C=CCCCCCCCCC(=O)OCC` yielded a GHS category of 5.

Turning to `CC(C)[C@@H]1CC[C@@H](C)C[C@H]1OC(=O)Cc1ccccc1`, the GHS category in series [1] was found to be 5.

In the case of `CCCCCCCC/C=C\CCCCCCCC(=O)N(CCCC)CCCC`, in series [1], the GHS category amounted to 5.

Regarding `NC(=O)Oc1ccccc1C(=O)Oc1ccccc1`, the GHS category in series [1] is recorded as 5.

`CCCOC(C)OCCc1ccccc1` (stereo not drawn) showed a GHS category in series [1] of 5.

Take `CC(=O)OC1C=C(C)C2CC(=C(C)C)CC2C(C)C1` (stereo not drawn): the GHS category in series [1] stood at 5.

In series [1], `Nc1ccc(C2(c3ccc(N)c(Cl)c3)c3ccccc3-c3ccccc32)cc1Cl` came in with a GHS category of 5.

On to `COC(=O)CC(C(C)=O)C(=O)OC` (stereo not drawn), for which, in series [1], the GHS category is 5.

`CC(C)=CC(C)(C)CC(C)(C)C`: in series [1], the GHS category is listed as 5.

In turn, `CCCCCCCCC=CCCCCCCCC(=O)OCC(COC(=O)CCCCCCCC=CCCCCCCCC)(COC(=O)CCCCCCCC=CCCCCCCCC)COC(=O)CCCCCCCC=CCCCCCCCC` (stereo not drawn) yielded a GHS category in series [1] of 5.

`CC1CC(OC(=O)C(C)(C)Oc2ccc(Cl)cc2)CC(C)(C)C1` (stereo not drawn): in series [1], the GHS category worked out at 5.

`CCCCCCCCCNP1(=S)OCc2cc([N+](=O)[O-])ccc2O1` (stereo not drawn) returned a GHS category in series [1] of 3.

As to `O=C(O)C1CNC1`, in series [1], the GHS category is reported as 5.

`CCO[Si](CN1CCOCC1)(OCC)OCC` had a GHS category in series [1] of 5.

With `O=C1NC(=O)C(c2ccc(O)cc2)N1` (stereo not drawn), the GHS category in series [1] is reported as 5.

In turn, `NC(=O)Oc1ccccc1C(=O)Oc1ccc(Cl)cc1Cl` gave a GHS category in series [1] of 5.

In series [1], `Nc1ncnc2c1ncn2[C@@H]1O[C@H](CO)[C@@H](O)[C@@H]1O` showed a GHS category of 5.
